According to patent US9593146B2, “CD44v6-derived peptides for treating metastasizing cancer” (AMCURE GMBH, priority 2012, dated 2017):

How the values were obtained:
[1] = system: Met and ERK; experiment: HGF induced activation of Met and Erk in BSp73ASs6 cells (Western blot); assay type: cell-based, rat
Protocol: (§1) Serum-starved cells (24 hours) were induced with the growth factor HGF (10 ng/mL) at 37° C. for 5 minutes. Where indicated, the cells were treated with peptides (100 ng/ml) prior to induction at 37° C. for 10 minutes (100 ng/mL CD44v6 peptide or control peptide). Following the induction with HGF, cells were washed with ice-cold phosphate-buffered saline (PBS). To detect activated Met and Erk, cells were lysed in sodium dodecyl sulfate (SDS)-sample buffer containing 100 mM dithiothreitol (DTT), boiled and subjected to western blot analysis using antibodies against phospho-Met and ERK. The loading controls were performed on the same blot after stripping (62.5 mM Tris, pH 6.8, 2% SDS, 0.8% DTT) by probing with the Met respectively ERK antibody. Blots were stained using the enhanced chemiluminescence system (Thermo Fisher Scientific, Schwerte, Germany). Bands in western blot analysis were quantified with the program Image J (National Institutes of Health).
Rat pancreatic cancer cells BSp73ASs6 (also designated Ass6) were incubated for 10 min at 37° C. with either ctrl-peptides (SEQ ID No.: 15), non-pegylated v6-peptides (SEQ ID No.: 11) and increasing concentrations of the pegylated peptides, namely PEG-rat control peptide and PEG-rat CD44v6 peptide, before induction with HGF (10 ng/ml; 5 min at 37° C.).
Activation of ERK and Met was determined by standard SDS and Western Blotting techniques using a phospho-Met and phospho-Erk specific antibody (phospho-Met clone D16 cell signaling, phospho-Erk p42/44 cell signaling)
ASs6 cells, serum starved for 24 h, were induced with HGF (10 ng/ml) at 37° C. for 5 min. Where indicated, the cells were treated with PEGylated or non-PEGylated peptides before induction at 37° C. for 10 min (150 nM). Cells were washed with phosphate-buffered saline (PBS) and lysed in boiling sodium dodecyl sulfate (SDS)-sample buffer containing 100 mM dithiothreitol (DTT). Subsequently, lysates were subjected to Western blot analysis using antibodies against phosphorylated Mek and Erk (Cell signaling). The Mek and Erk loading control were performed on the same blot, stripped (62.5 mM Tris pH 6.8, 2% SDS, 0.8% DTT) and probed with the Mek and Erk antibodies. Blots were stained using the enhanced chemiluminescence system (Thermo Fisher Scientific).

[2] = system: HT29 cells; experiment: HGF induced scattering of HT29 cells; assay type: cell-based, human; details: for HGF induced clustering / scattering of HT29 cells (FIG. 11): HGF 10 ng/ml, peptide pre-incubation (Example 2)
Protocol: FIG. 17: The human CD44 v6 specific peptides block HGF induced cell scattering and invasion into matrigel. Scattering of HT29 cells was determined in 24-well plates. First, 4.5×10^4 cells were seeded at 37° C.; after 24 h the cells were serum starved for additional 24 h. the cells were either left untreated (control) or later treated with HGF (50 ng/ml) for 24 h. Where indicated the cells were treated with the v6 specific peptide (human v6 5mer, 10mer, 14mer) or control peptide prior to induction with HGF for 30 min. Pictures were made using phase contrast microscopy. Magnification 40×.
A scatter assay was performed additionally. HT29 colon cancer cells were grown in medium containing 10% FCS. One day after seeding, the cells were starved. On the third day, the cells were induced with HGF (10 ng/ml) and pre-incubated with either no peptide, ctrl-peptides (SEQ ID No.: 15), non-pegylated v6-peptides (SEQ ID No.: 11) or the pegylated peptides, namely PEG-rat control peptide and PEG-rat CD44v6 peptide.
Scattering of HT29 cells was determined in 24-well plates. First, 4×10^5 cells were seeded at 37° C.; the cells were either left untreated or 48 h later treated with HGF (50 ng/ml) for 24 h or with PEGylated or non-PEGylated peptides (100 ng/ml) prior to HGF induction for 30 min.

[3] = system: L3.6pl cells; experiment: Human orthotopic model of pancreatic cancer, L3.6pl cells in nude mice; assay type: in vivo; details: 20 μg i.p. three times per week for 21 days
Protocol: In the case of the human orthotopic model, L3.6pl pancreatic carcinoma cells (passage 24-26) were suspended in Hank's balanced salt solution (Invitrogen, Karlsruhe, Germany) after trypsinization. The cells were injected orthotopically in the pancreas of male nude mice as described (Bruns C J et al. (1999) Neoplasia 1(1):50-62). Two groups of 15 mice each were injected i.p. 7 days later with either the human v6 peptide respectively rat control peptide (20 μg). For all experiments described and depicted herein either the rat 14mer control peptide or the human 14mer peptide were used. All experiments were then repeated with the rat 5mer control peptide or the human 5mer peptide (N-R-W-H-E, SEQ ID NO: 2). […] The injection was repeated three times per week for 21 days. Two days after the last treatment the animals were killed. […]
A comparison of different CD44v6 peptide derivatives was performed in animals bearing a orthotopic L3.6pl tumor. 10 groups of 5 animals each received a dose of 20 μg peptide per injection three times per week for 3 weeks with the compounds listed in Table 4. Three weeks after starting the treatment the animals were sacrificed and analyzed for macroscopic metastases and tumor volume.

[4] = system: BSp73ASs6 cells; experiment: Rat syngeneic model, subcutaneous BSp73ASs6 tumor, metastasis formation; assay type: in vivo
Protocol: In the case of the rat syngeneic model, 1×10^6 pancreatic cells (BSp73AS and its transfectants) were subcutaneously injected into the right posterior flank of the animals. Tumors developed for four weeks. During this time period animals injected with BSp73ASs6 cells expressing Met-shRNA or control-shRNA received doxycycline in the drinking water. At the end of the experiment, primary tumors were isolated. Lungs and axillary lymph nodes were analyzed. The tissues were incubated for 24 h in a zinc-fixative (0.5 g calcium acetate, 5.0 g zinc acetate, 5.0 g zinc chloride, in 1 L 0.1 M Tris pH 7.4) and embedded in paraffin for further analysis. In case of peptide or antibody treatment tumors developed for one week before the first treatment. Where indicated, animals received 200 μg of peptide or antibody per injection three times per week for four weeks. Tumor growth was monitored weekly using a caliper. Animals were killed at day 28 or 30 after start of the treatment.
For histo-morphological analysis paraffin-embedded sections of lungs were stained with hematoxylin and eosin and periodic acid-Schiff (H&E or PAS). Serial sections of the whole tissue blocks were examined by analyzing slices every 20 μm; in each slice, the presence and the extension of the metastatic deposit was assessed, according to the procedure routinely used by pathologists to evaluate the presence of micro-metastases.

[5] = system: Met and ERK; experiment: HGF induced activation of Met and ERK in L3.6pl cells (Western blot); assay type: cell-based, human; details: L3.6pl cells, peptide prior to induction with 10 ng/ml HGF
Protocol: as §1

Substance | HGF induced Met-phosphorylation and Erk signaling ([1]; ASs6 cells, peptides with 2000 dalton PEG-chain, 150 nM 10 min before HGF 10 ng/ml (FIG. 10)) | Inhibition of ERK, pegylated vs. non-pegylated peptides ([1]; BSp73ASs6 cells) | HGF dependent activation of Met and ERK ([1]; pegylated rat 5mer, 10 min pre-incubation, HGF 10 ng/ml 5 min (FIGS. 9, 10)) | HGF induced clustering / scattering of HT29 cells (FIG. 11) [2] | HGF induced scattering of HT29 cells ([2]; PEGylated peptides 100 ng/ml prior to HGF 50 ng/ml (Example 5, FIG. 11)) | all experiments of the human orthotopic model repeated with 5mer peptides [3] | metastasis (axillary lymph nodes, lungs) ([4]; 200 μg per injection, intra-tumoral or intravenously three times a week, start after one week of tumor growth) | outgrowth of primary tumors ([4]; same treatment, 28 days) | metastasis and micro-metastasis in lung sections (PAS and H&E staining) ([4]; same treatment, histological analysis) | Phosphorylation of Met and ERK [5]
PEG-NEWQG [PEG-rat CD44v6 peptide, rat CD44v6 5mer pegylated at the N-terminal] | HGF completely failed to induce Met-phosphorylation and to activate Erk signaling | even more efficient | efficient in inhibiting HGF dependent activation of Met and ERK | lead to dissociation and migration of cells away from these cell cluster | strongly inhibited |  |  |  |  | 
NEWQG [rat 5mer, rat CD44v6 5mer peptide] |  |  |  | lead to dissociation and migration of cells away from these cell cluster |  | The same results as for the 14mer peptides were observed | completely inhibited metastasis | not influenced by either treatment | neither metastasis nor micro-metastasis could be detected | had no influence on receptor activation and signal transduction
